Results reported in publication PMC5601486, “Identification of 4-phenylquinolin-2(1H)-one as a specific allosteric inhibitor of Akt” (Scientific Reports, 2017).

What was measured:
[1] = test system: Neuro 2A cells; experiment: MTS cell proliferation assay; type: cell-based, Mouse; conditions: 1 day
Experimental: (§1) Neuro 2A cells or NIH/3T3 cells (ATCC) were seeded at various confluency in a 96-well plate in 100 µL DMEM containing 5% FBS or 10% FBS with 1% penicillin streptomucin, respectively, at 37 °C in a 5% CO2 and 95% humidity incubator for 18 hr. To each well 1 µL inhibitor with various concentrations or DMSO was added. The final concentrations of the tested inhibitors were 0, 5, 10, 20, 40 and 80 µM for G7 and LY, and 0, 5, 10, 20, 40 and 80 nM for Torin1, based on their respective IC50 values (~µM for G7 and LY and ~ nM for Torin 1). After 24 hr, 20 µL of CellTiter 96® AQueous One Solution Reagent (Promega) were added. The plate was placed in the incubator for 2 h and absorbance at 490 nm was measured with a Synergy HT Microplate Reader (Bio-Tek).

[2] = test system: NIH/3T3 cells; experiment: MTS cell proliferation/viability assay; type: cell-based; conditions: no longer proliferating, in comparison to LY or Torin 1
Experimental: as §1

[3] = test system: T1, PFPK5(P.falciparum); experiment: KINOMEscan; type: binding; conditions: 50000 nM
T1 construct: purchased DiscoveRx KINOMEscan

[4] = test system: DMPK2; experiment: KINOMEscan; conditions: 50000 nM
Experimental: KINOMEscan™ selectivity screen
(§2) The assay was perfor med at DiscoveRx Corporation according the methods published previously5. Briefly, Kinase-tagged T7 phage strains were grown in parallel in an E. coli host derived from the BL21 strain. E. coli were grown to log-phase and infected with T7 phage from a frozen stock and incubated with shaking at 32°C until lysis (90-150 minutes). The kinases were produced in HEK-293 cells and subsequently tagged with DNA for qPCR detection. Streptavidin-coated magnetic beads were treated with biotinylated small molecule ligands to generate affinity resins for kinase
(§3) inhibitor or DMSO control was performed in polypropylene 384-well plates for 1 hr at room temperature. After wash with PBS buffer containing 0.05% Tween 20, the beads were incubated in elution buffer (PBS containing 0.05 % Tween 20 and 0.5 μM non-biotinylated affinity ligand) for 30 minutes at room temperature. The kinase concentration in the eluates was measured by qPCR.

[5] = test system: MAST1; experiment: KINOMEscan; conditions: 50000 nM
Experimental: KINOMEscan™ selectivity screen
as §2, §3

[6] = test system: MRCKA; experiment: KINOMEscan; conditions: 50000 nM
Experimental: KINOMEscan™ selectivity screen
as §2, §3

[7] = test system: MYO3B; experiment: KINOMEscan; conditions: 50000 nM
Experimental: KINOMEscan™ selectivity screen
as §2, §3

[8] = test system: TNK1; experiment: KINOMEscan; conditions: 50000 nM
Experimental: KINOMEscan™ selectivity screen
as §2, §3

[9] = test system: CDK9; experiment: KINOMEscan; conditions: 50000 nM
Experimental: KINOMEscan™ selectivity screen
(§4) Briefly, Kinase-tagged T7 phage strains were grown in parallel in an E. coli host derived from the BL21 strain. E. coli were grown to log-phase and infected with T7 phage from a frozen stock and incubated with shaking at 32°C until lysis (90-150 minutes). The kinases were produced in HEK-293 cells and subsequently tagged with DNA for qPCR detection. Streptavidin-coated magnetic beads were treated with biotinylated small molecule ligands to generate affinity resins for kinase
as §3

[10] = test system: BRK; experiment: KINOMEscan; conditions: 50000 nM
Experimental: KINOMEscan™ selectivity screen
as §2, §3

[11] = test system: PHKG2; experiment: KINOMEscan; conditions: 50000 nM
Experimental: KINOMEscan™ selectivity screen
as §4, §3

[12] = test system: MST1; experiment: KINOMEscan; conditions: 50000 nM
Experimental: KINOMEscan™ selectivity screen
as §2, §3

[13] = test system: EGFR(L747-E749del, A750P); experiment: KINOMEscan; conditions: 50000 nM
Experimental: KINOMEscan™ selectivity screen
as §2, §3

[14] = test system: RPS6KA5(Kin.Dom.1-N-terminal); experiment: KINOMEscan; conditions: 50000 nM
Experimental: KINOMEscan™ selectivity screen
as §2, §3

[15] = test system: TLK2; experiment: KINOMEscan; conditions: 50000 nM
Experimental: KINOMEscan™ selectivity screen
as §4, §3

[16] = test system: NDR2; experiment: KINOMEscan; conditions: 50000 nM
Experimental: as §4, §3

[17] = test system: SRMS; experiment: KINOMEscan; conditions: 50000 nM
Experimental: as §4, §3

[18] = test system: CAMK1D; experiment: KINOMEscan; conditions: 50000 nM
Experimental: as §4, §3

[19] = test system: ERBB4; experiment: KINOMEscan; conditions: 50000 nM
Experimental: KINOMEscan™ selectivity screen
as §2, §3

[20] = test system: JNK3; experiment: KINOMEscan; conditions: 50000 nM
Experimental: KINOMEscan™ selectivity screen
as §2, §3

[21] = test system: ULK3; experiment: KINOMEscan; conditions: 50000 nM
Experimental: KINOMEscan™ selectivity screen
as §2, §3

[22] = test system: ALK(L1196M); experiment: KINOMEscan; conditions: 50000 nM
Experimental: KINOMEscan™ selectivity screen
as §2, §3

[23] = test system: BRAF; experiment: KINOMEscan; conditions: 50000 nM
Experimental: KINOMEscan™ selectivity screen
as §2, §3

[24] = test system: CAMK1; experiment: KINOMEscan; conditions: 50000 nM
Experimental: KINOMEscan™ selectivity screen
as §2, §3

[25] = test system: DDR1; experiment: KINOMEscan; conditions: 50000 nM
Experimental: KINOMEscan™ selectivity screen
as §2, §3

[26] = test system: FER; experiment: KINOMEscan; conditions: 50000 nM
Experimental: as §4, §3

[27] = test system: WEE2; experiment: KINOMEscan; conditions: 50000 nM
Experimental: KINOMEscan™ selectivity screen
(§5) The assay was perfor med at DiscoveRx Corporation according the methods published previously5. […] The kinases were produced in HEK-293 cells and subsequently tagged with DNA for qPCR detection. Streptavidin-coated magnetic beads were treated with biotinylated small molecule ligands to generate affinity resins for kinase
as §3

[28] = test system: BMPR1B; experiment: KINOMEscan; conditions: 50000 nM
Experimental: KINOMEscan™ selectivity screen
as §2, §3

[29] = test system: RET(V804L); experiment: KINOMEscan; conditions: 50000 nM
Experimental: KINOMEscan™ selectivity screen
as §2, §3

[30] = test system: JAK1(JH1domain-catalytic); experiment: KINOMEscan; conditions: 50000 nM
Experimental: KINOMEscan™ selectivity screen
as §2, §3

[31] = test system: NLK; experiment: KINOMEscan; conditions: 50000 nM
Experimental: KINOMEscan™ selectivity screen
as §2, §3

[32] = test system: VRK2; experiment: KINOMEscan; conditions: 50000 nM
Experimental: KINOMEscan™ selectivity screen
as §2, §3

[33] = test system: TRPM6; experiment: KINOMEscan; conditions: 50000 nM
Experimental: KINOMEscan™ selectivity screen
as §4, §3

[34] = test system: CSK; experiment: KINOMEscan; conditions: 50000 nM
Experimental: KINOMEscan™ selectivity screen
as §2, §3

[35] = test system: MARK1; experiment: KINOMEscan; conditions: 50000 nM
Experimental: KINOMEscan™ selectivity screen
as §5, §3

[36] = test system: PRKCH; experiment: KINOMEscan; conditions: 50000 nM
Experimental: KINOMEscan™ selectivity screen
The kinases were produced in HEK-293 cells and subsequently tagged with DNA for qPCR detection. Streptavidin-coated magnetic beads were treated with biotinylated small molecule ligands to generate affinity resins for kinase
as §3

[37] = test system: IRAK3; experiment: KINOMEscan; conditions: 50000 nM
Experimental: KINOMEscan™ selectivity screen
as §4, §3

[38] = test system: ABL1(F317I)-phosphorylated; experiment: KINOMEscan; conditions: 50000 nM
Experimental: KINOMEscan™ selectivity screen
as §2, §3

[39] = test system: BRSK1; experiment: KINOMEscan; conditions: 50000 nM
Experimental: KINOMEscan™ selectivity screen
as §2, §3

[40] = test system: PIM2; experiment: KINOMEscan; conditions: 50000 nM
Experimental: KINOMEscan™ selectivity screen
as §2, §3

[41] = test system: LRRK2(G2019S); experiment: KINOMEscan; conditions: 50000 nM
Experimental: KINOMEscan™ selectivity screen
as §2, §3

[42] = test system: MAP3K2; experiment: KINOMEscan; conditions: 50000 nM
Experimental: KINOMEscan™ selectivity screen
as §2, §3

[43] = test system: MAP3K3; experiment: KINOMEscan; conditions: 50000 nM
Experimental: KINOMEscan™ selectivity screen
as §4, §3

[44] = test system: ITK; experiment: KINOMEscan; conditions: 50000 nM
Experimental: KINOMEscan™ selectivity screen
as §4, §3

[45] = test system: ABL1(E255K)-phosphorylated; experiment: KINOMEscan; conditions: 50000 nM
Experimental: KINOMEscan™ selectivity screen
as §2, §3

[46] = test system: YSK4; experiment: KINOMEscan; conditions: 50000 nM
Experimental: KINOMEscan™ selectivity screen
as §2, §3

[47] = test system: KIT; experiment: KINOMEscan; conditions: 50000 nM
Experimental: KINOMEscan™ selectivity screen
as §4, §3

Compound: Oc1cc(-c2ccccc2)c2ccccc2n1 [G7, 4-phenylquinolin-2(1H)-one]
- proliferation of Neuro 2A cells [1]: inhibited the proliferation
- inhibition of confluent NIH/3T3 cells [2]: considerably less inhibition
- Percent Control [3]: 85%
- Percent Control [4]: 100%
- Percent Control [5]: 100%
- Percent Control [6]: 100%
- Percent Control [7]: 100%
- Percent Control [8]: 100%
- Percent Control [9]: 99%
- Percent Control [10]: 96%
- Percent Control [11]: 91%
- Percent Control [12]: 90%
- Percent Control [13]: 89%
- Percent Control [14]: 89%
- Percent Control [15]: 89%
- Percent Control [16]: 88%
- Percent Control [17]: 88%
- Percent Control [18]: 87%
- Percent Control [19]: 86%
- Percent Control [20]: 86%
- Percent Control [21]: 86%
- Percent Control [22]: 85%
- Percent Control [23]: 84%
- Percent Control [24]: 84%
- Percent Control [25]: 84%
- Percent Control [26]: 84%
- Percent Control [27]: 84%
- Percent Control [28]: 83%
- Percent Control [29]: 83%
- Percent Control [30]: 82%
- Percent Control [31]: 82%
- Percent Control [32]: 82%
- Percent Control [33]: 78%
- Percent Control [34]: 76%
- Percent Control [35]: 76%
- Percent Control [36]: 75%
- Percent Control [37]: 74%
- Percent Control [38]: 72%
- Percent Control [39]: 72%
- Percent Control [40]: 68%
- Percent Control [41]: 63%
- Percent Control [42]: 63%
- Percent Control [43]: 62%
- Percent Control [44]: 60%
- Percent Control [45]: 56%
- Percent Control [46]: 55%
- Percent Control [47]: 26%
